Experimental data from ChEMBL document CHEMBL4024706 (Eur J Med Chem, 2017).

What was measured:
[1] = target: 1-phosphatidylinositol 3-phosphate 5-kinase (Homo sapiens) (UniProt Q9Y2I7); experiment: Inhibition of wild-type human partial length PIKFYVE (F1512 to C2098 residues) expressed in mammalian expression system assessed as residual activity at 1 uM by Kinomescan method relative to control
[2] = target: Serine/threonine-protein kinase Sgk1 (Homo sapiens) (UniProt O00141); experiment: Inhibition of wild-type human partial length SGK (I60 to L431 residues) expressed in mammalian expression system assessed as residual activity at 1 uM by Kinomescan method relative to control
[3] = target: T1, Tyrosine-protein kinase BTK (Homo sapiens, UniProt Q06187); experiment: Reversible inhibition of full length recombinant human N-terminal His tagged […] expressed in baculovirus infected Sf9 insect cells using poly (Glu,Tyr)4:1 as substrate pretreated for 2 to 60 mins followed by substrate addition after 1 hr by ADP-Glo luminescence assay
[4] = target: Tyrosine-protein kinase Lck (Homo sapiens) (UniProt P06239); experiment: Inhibition of wild-type human partial length LCK (R207 to P509 residues) expressed in bacterial expression system assessed as residual activity at 1 uM by Kinomescan method relative to control
[5] = target: Myosin light chain kinase (Homo sapiens) (UniProt Q32MK0); experiment: Inhibition of wild-type human partial length MLCK (D488 to K800 residues) expressed in bacterial expression system assessed as residual activity at 1 uM by Kinomescan method relative to control
[6] = target: Serine/threonine-protein kinase MRCK gamma (Homo sapiens) (UniProt Q6DT37); experiment: Inhibition of wild-type human partial length DMPK2 (S46 to S408 residues) expressed in bacterial expression system assessed as residual activity at 1 uM by Kinomescan method relative to control
[7] = target: Serine/threonine-protein kinase Nek10 (Homo sapiens) (UniProt Q6ZWH5); experiment: Inhibition of wild-type human partial length NEK10 (L488 to R809 residues) expressed in mammalian expression system assessed as residual activity at 1 uM by Kinomescan method relative to control
[8] = system: Hepatocyte growth factor receptor (Homo sapiens), P08581 [Y1235D]; experiment: Inhibition of human partial length MET Y1235D mutant (D1010 to S1367 residues) expressed in bacterial expression system assessed as residual activity at 1 uM by Kinomescan method relative to control
[9] = AUC (0 to t) in Sprague-Dawley rat at 1 mg/kg, iv by LC-MS/MS method; assay type: ADME, organism-based; details: in vivo
[10] = target: Ribosomal protein S6 kinase alpha-2 (Homo sapiens) (UniProt Q15349); experiment: Inhibition of wild-type human partial length C-terminal RSK3 kinase domain 2 (V403 to K700 residues) expressed in bacterial expression system assessed as residual activity at 1 uM by Kinomescan method relative to control
[11] = target: Interleukin-1 receptor-associated kinase 4 (Homo sapiens) (UniProt Q9NWZ3); experiment: Inhibition of wild-type human partial length IRAK4 (M1 to S460 residues) expressed in mammalian expression system assessed as residual activity at 1 uM by Kinomescan method relative to control
[12] = target: Serine/threonine-protein kinase DCLK1 (Homo sapiens) (UniProt O15075); experiment: Inhibition of wild-type human partial length DCAMKL1 (L270 to A662 residues) expressed in mammalian expression system assessed as residual activity at 1 uM by Kinomescan method relative to control
[13] = target: Ephrin type-A receptor 1 (Homo sapiens) (UniProt P21709); experiment: Inhibition of wild-type human partial length EPHA1 (V588 to I913 residues) expressed in bacterial expression system assessed as residual activity at 1 uM by Kinomescan method relative to control
[14] = target: Serine/threonine-protein kinase SBK1 (Homo sapiens) (UniProt Q52WX2); experiment: Inhibition of wild-type human partial length SBK1 (P23 to P348 residues) expressed in mammalian expression system assessed as residual activity at 1 uM by Kinomescan method relative to control
[15] = target: Mitogen-activated protein kinase kinase kinase 14 (Homo sapiens) (UniProt Q99558); experiment: Inhibition of wild-type human partial length NIK (L318 to P947 residues) expressed in mammalian expression system assessed as residual activity at 1 uM by Kinomescan method relative to control
[16] = target: Mitogen-activated protein kinase 4 (Homo sapiens) (UniProt P31152); experiment: Inhibition of wild-type human partial length ERK4 (M1 to L365 residues) expressed in bacterial expression system assessed as residual activity at 1 uM by Kinomescan method relative to control
[17] = target: Muscle, skeletal receptor tyrosine-protein kinase (Homo sapiens) (UniProt O15146); experiment: Inhibition of wild-type human partial length MUSK (M553 to V869 residues) expressed in bacterial expression system assessed as residual activity at 1 uM by Kinomescan method relative to control
Homo sapiens = species: Homo sapiens; experiment: Inhibition of human partial length FLT3 ITD mutant expressed in bacterial expression system assessed as residual activity at 1 uM by Kinomescan method relative to control
[18] = target: Serine/threonine-protein kinase Chk1 (Homo sapiens) (UniProt O14757); experiment: Inhibition of wild-type human partial length CHEK1 (M1 to G289 residues) expressed in bacterial expression system assessed as residual activity at 1 uM by Kinomescan method relative to control
[19] = target: Dual specificity testis-specific protein kinase 1 (Homo sapiens) (UniProt Q15569); experiment: Inhibition of wild-type human […] length TESK1 (R37 to S626 residues) expressed in bacterial expression system assessed as residual activity at 1 uM by Kinomescan method relative to control
[20] = target: Serine/threonine-protein kinase ULK1 (Homo sapiens) (UniProt O75385); experiment: Inhibition of wild-type human partial length ULK1 (M1 to T309 residues) expressed in mammalian expression system assessed as residual activity at 1 uM by Kinomescan method relative to control
[21] = target: T1, Tyrosine-protein kinase BTK; experiment: Inhibition of BTK auto-phosphorylation at Y223 in human U2932 cells measured after 4 hrs by chemiluminescent assay
[22] = target: G protein-coupled receptor kinase 4 (Homo sapiens) (UniProt P32298); experiment: Inhibition of wild-type human full length GRK4 (M1 to C578 residues) expressed in bacterial expression system assessed as residual activity at 1 uM by Kinomescan method relative to control
[23] = target: Homeodomain-interacting protein kinase 4 (Homo sapiens) (UniProt Q8NE63); experiment: Inhibition of wild-type human partial length HIPK4 (M1 to V384 residues) expressed in bacterial expression system assessed as residual activity at 1 uM by Kinomescan method relative to control
[24] = target: MAP/microtubule affinity-regulating kinase 3 (Homo sapiens) (UniProt P27448); experiment: Inhibition of wild-type human full length MARK3 (M1 to L729 residues) expressed in bacterial expression system assessed as residual activity at 1 uM by Kinomescan method relative to control
[25] = target: Serine/threonine-protein kinase TAO1 (Homo sapiens) (UniProt Q7L7X3); experiment: Inhibition of wild-type human partial length TAOK1 (M1 to A320 residues) expressed in mammalian expression system assessed as residual activity at 1 uM by Kinomescan method relative to control

T1 sequence (Q06187 whole entry, the tested form may be a part): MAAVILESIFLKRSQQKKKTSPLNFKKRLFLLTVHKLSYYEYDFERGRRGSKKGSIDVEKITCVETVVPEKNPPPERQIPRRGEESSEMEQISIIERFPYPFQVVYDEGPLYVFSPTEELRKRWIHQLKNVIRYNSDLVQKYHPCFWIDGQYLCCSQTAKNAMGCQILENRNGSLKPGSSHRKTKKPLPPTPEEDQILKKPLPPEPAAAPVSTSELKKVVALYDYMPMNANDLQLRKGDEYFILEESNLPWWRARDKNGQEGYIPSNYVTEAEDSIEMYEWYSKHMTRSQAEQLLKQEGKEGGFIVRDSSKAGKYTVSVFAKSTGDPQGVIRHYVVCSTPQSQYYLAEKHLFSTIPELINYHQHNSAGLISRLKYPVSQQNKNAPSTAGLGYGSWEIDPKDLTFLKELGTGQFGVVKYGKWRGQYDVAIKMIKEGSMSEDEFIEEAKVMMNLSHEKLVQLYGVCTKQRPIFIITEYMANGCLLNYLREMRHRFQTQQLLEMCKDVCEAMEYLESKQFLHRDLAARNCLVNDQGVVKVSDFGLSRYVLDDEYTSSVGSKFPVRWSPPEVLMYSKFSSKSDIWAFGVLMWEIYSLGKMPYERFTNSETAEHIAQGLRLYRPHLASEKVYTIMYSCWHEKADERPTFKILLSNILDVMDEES
Serine/threonine-protein kinase ULK1 (Homo sapiens), sequence (O75385 whole entry, the tested form may be a part): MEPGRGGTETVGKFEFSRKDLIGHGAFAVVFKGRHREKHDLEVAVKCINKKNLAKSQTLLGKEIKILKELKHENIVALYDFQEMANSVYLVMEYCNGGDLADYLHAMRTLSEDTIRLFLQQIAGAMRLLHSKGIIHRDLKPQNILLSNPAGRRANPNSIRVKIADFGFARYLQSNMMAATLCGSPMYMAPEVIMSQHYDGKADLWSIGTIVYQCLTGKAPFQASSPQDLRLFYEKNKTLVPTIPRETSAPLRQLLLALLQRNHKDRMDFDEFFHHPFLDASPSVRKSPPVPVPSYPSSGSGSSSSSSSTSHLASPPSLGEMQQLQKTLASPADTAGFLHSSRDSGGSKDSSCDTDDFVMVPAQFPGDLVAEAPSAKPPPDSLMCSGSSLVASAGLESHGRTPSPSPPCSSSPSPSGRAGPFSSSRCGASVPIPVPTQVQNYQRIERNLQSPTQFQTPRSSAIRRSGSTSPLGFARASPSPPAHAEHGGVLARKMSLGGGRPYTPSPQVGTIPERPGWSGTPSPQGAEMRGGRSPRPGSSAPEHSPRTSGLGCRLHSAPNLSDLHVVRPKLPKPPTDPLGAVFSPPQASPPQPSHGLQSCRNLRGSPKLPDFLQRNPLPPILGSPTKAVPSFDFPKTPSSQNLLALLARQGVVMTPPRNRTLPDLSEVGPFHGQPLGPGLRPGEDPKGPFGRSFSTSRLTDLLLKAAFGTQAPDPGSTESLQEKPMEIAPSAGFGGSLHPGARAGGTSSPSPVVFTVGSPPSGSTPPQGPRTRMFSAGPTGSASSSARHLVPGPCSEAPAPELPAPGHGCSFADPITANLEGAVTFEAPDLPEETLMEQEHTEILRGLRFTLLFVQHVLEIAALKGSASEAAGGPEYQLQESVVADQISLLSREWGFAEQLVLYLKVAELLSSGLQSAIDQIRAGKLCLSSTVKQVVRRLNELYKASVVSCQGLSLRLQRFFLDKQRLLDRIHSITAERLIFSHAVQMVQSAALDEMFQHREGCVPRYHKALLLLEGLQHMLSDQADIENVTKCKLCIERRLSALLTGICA
Serine/threonine-protein kinase Chk1 (Homo sapiens), sequence (O14757 whole entry, the tested form may be a part): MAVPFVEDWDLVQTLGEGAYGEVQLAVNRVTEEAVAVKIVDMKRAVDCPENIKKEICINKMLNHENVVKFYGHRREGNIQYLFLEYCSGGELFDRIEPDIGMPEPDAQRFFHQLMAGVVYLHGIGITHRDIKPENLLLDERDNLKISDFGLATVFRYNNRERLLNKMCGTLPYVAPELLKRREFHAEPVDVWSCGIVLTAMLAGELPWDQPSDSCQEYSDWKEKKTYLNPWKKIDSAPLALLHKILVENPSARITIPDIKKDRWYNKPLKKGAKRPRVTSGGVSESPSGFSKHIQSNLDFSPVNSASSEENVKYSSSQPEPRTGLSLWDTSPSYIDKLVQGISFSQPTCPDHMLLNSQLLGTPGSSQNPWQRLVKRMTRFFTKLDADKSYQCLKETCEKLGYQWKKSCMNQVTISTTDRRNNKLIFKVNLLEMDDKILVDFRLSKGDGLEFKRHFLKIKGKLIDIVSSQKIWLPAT
Ribosomal protein S6 kinase alpha-2 (Homo sapiens), sequence (Q15349 whole entry, the tested form may be a part): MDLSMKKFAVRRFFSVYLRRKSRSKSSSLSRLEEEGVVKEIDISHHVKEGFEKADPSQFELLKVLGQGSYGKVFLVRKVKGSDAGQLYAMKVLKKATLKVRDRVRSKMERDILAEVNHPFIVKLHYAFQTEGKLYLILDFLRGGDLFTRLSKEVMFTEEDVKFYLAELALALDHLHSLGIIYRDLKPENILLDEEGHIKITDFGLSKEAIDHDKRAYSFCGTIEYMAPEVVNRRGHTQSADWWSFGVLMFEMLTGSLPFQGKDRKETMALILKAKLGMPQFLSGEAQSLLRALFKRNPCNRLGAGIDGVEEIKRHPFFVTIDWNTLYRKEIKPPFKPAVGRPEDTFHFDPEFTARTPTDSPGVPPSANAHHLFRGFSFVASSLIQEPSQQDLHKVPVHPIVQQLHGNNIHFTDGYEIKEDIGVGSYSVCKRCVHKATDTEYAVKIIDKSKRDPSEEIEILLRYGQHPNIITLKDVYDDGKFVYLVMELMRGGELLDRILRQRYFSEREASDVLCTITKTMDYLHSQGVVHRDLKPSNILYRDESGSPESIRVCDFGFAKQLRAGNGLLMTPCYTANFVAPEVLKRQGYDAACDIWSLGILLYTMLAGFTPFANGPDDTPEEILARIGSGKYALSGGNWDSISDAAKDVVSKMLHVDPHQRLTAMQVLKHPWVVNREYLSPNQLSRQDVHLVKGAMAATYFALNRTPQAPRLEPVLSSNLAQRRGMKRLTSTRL
Homeodomain-interacting protein kinase 4 (Homo sapiens), sequence (Q8NE63 whole entry, the tested form may be a part): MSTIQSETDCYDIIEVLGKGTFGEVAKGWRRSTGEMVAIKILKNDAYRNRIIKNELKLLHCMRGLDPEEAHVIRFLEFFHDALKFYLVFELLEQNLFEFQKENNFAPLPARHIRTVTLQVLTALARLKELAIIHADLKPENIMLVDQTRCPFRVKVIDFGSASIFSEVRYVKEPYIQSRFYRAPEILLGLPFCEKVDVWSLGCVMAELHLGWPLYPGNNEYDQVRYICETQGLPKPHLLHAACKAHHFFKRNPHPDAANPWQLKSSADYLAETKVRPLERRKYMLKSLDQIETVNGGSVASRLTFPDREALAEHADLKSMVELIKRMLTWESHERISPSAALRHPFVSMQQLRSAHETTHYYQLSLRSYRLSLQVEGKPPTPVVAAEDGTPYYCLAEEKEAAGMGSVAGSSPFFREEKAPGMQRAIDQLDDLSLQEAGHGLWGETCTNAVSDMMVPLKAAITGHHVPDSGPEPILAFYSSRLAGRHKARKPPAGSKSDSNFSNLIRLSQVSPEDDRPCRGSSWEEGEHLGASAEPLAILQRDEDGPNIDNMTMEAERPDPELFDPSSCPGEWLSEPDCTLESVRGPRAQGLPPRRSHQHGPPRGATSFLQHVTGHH
Serine/threonine-protein kinase Nek10 (Homo sapiens), sequence (Q6ZWH5 whole entry, the tested form may be a part): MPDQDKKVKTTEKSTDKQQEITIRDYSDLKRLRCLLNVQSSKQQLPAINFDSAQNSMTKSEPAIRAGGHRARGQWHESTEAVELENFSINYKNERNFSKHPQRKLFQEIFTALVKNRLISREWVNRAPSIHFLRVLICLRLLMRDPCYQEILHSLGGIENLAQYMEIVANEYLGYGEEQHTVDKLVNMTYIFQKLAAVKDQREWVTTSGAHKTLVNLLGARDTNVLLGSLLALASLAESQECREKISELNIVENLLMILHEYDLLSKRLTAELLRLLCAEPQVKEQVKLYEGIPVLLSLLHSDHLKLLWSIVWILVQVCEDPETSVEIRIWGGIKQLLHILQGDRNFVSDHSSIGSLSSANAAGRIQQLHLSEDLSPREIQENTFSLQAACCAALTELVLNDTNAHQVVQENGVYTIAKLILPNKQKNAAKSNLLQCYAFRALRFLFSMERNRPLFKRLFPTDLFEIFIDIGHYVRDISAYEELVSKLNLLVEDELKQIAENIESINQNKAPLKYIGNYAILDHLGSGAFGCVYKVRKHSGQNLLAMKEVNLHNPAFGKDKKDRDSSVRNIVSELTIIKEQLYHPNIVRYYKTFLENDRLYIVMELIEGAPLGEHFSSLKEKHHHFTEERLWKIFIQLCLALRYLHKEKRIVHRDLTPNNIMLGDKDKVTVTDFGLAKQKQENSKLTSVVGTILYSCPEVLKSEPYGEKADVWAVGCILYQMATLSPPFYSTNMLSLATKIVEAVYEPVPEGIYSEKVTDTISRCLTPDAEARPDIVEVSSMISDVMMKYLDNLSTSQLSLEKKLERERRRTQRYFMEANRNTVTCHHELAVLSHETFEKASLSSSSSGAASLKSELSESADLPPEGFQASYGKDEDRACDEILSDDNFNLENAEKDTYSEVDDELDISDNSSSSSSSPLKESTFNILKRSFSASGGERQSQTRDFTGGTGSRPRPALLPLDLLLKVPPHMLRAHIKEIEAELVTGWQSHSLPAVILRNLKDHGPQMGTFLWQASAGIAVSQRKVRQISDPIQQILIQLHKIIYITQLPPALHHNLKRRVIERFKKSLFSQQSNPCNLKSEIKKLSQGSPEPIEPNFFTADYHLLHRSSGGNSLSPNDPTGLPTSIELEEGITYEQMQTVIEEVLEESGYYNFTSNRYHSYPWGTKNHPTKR

C=CC(=O)Nc1cc(Nc2cc(-c3cccc(NC(=O)c4ccc(C(C)(C)C)cc4)c3C)cn(C)c2=O)ccc1C(=O)N1CCOCC1
Activity [1]: 96%
Activity [2]: 95%
Ki [3]: 8.9 nM
Activity [4]: 97%
Activity [5]: 83%
Activity [6]: 100%
Activity [7]: 92%
Activity [8]: 89%
AUC(0-t) [9]: 182 ng·h/mL
Activity [10]: 83%
Activity [11]: 100%
Activity [12]: 95%
Activity [13]: 100%
Activity [14]: 100%
Activity [15]: 86%
Activity [16]: 95%
Activity [17]: 91%
Activity (Homo sapiens): 90%
Activity [18]: 100%
Activity [19]: 90%
Activity [20]: 100%
EC50 [21]: < 30 nM
Activity [22]: 80%
Activity [23]: 79%
Activity [24]: 100%
Activity [25]: 100%
